The values below come from patent US20060281806A1, “Treatment and inhibition of disease conditions using flexible heteroarotinoids” (priority 2005, published 2006).

Experiment [1] concerns EAhy.926 endothelial cells. Description: Growth/viability of endothelial cells versus ovarian cancer cell lines. The class given is cell-based. Particulars: SHetA2 for 24 hours. The procedure:
The graph on the left provides quantification of the endothelial branches for each treatment dose.
The increased thickness of the vessels at 1 μM and the increasing proportions of solitary clumps of cells at 5 and 10 μM indicate that SHetA2 is inhibiting endothelial cell migration. To determine if this anti-angiogenic activity was due to growth inhibition or cytotoxicity. The viability of the endothelial cells treated with SHetA2 for 24 hours was evaluated. […] This confirms the therapeutic ratio observed in previous studies.

For a further experiment, the system named is OVCAR-3 xenograft tumors. Description: Histochemical and immunohistochemical evaluation of xenograft tumors (glands, MUC-1, TUNEL). The class given is in vivo, mouse. The note with it: 10 mg/kg/day by gavage; end of treatment; versus control. The source says: On the last day of treatment, the animals were sacrificed and then the tumors were removed, fixed in neutral buffered formalin and embedded in paraffin. Five micron sections of the paraffin-embedded tumors were stained with hematoxylin and eosin (H&E) for histologic evaluation, and with the TUNEL (terminal deoxynucleodidyl transferase-mediated biotin-deoxyuridine triphosphate nick) FragEL kit (Oncogene Research Products, Boston, Mass.) for evaluation of apoptosis according to manufacturers instructions. MUC-1 expression was detected in tumor sections using a mouse monoclonal antibody to human MUC-1 (Pharmingen, San Diego, Calif.) and the Histostain-Plus AEC Kit (Zymed Laboratories, San Francisco, Calif.) according to manufacturers instructions. Briefly, endogenous peroxidase activity in deparaffinized sections was quenched with 3% H2O2 in methanol and then sections were incubated in serum blocking solution, and subsequently in primary antibody, diluted 1:50 in phosphate buffered saline (PBS), overnight at 4° C. in a humid chamber. Sections were then washed with PBS, treated with biotinylated secondary antibody for 15 minutes, followed by enzyme conjugate for 10 minutes. […] Tumor sections were scored for number of glands (quantified in one H&E stained sections and 3 MUC-1-stained sections) and MUC-1 and TUNEL staining (based on staining intensity and percent positive cells). […]

Experiment [2] deals with CC-1 human cervical cell line. The experiment in a line: In vitro cytotoxicity (SRB growth inhibition) assay, CC-1. Also noted: dose or concentration left out as unconfirmed. Particulars: 72 h. The class given is cell-based. The procedure: (§1) The SHetA2, SHetA3, SHetA4, SHet50 and 9-cis-RA compounds were evaluated in 4 cervical carcinoma cell lines. The SiHa, CC-1 and C33a human cervical cell lines were maintained in Minimal Essential Media (MEM) containing Earle's salts and L-glutamine supplemented with nonessential amino acids, 1% sodium pyruvate, 10% fetal bovine serum (FBS) and antibiotic/antimycotic. The HT-3 cervical carcinoma cell line was cultured in McCoy's 5a medium supplemented with 10% FBS and antibiotic/antimycotic. Cells were inoculated into 96 well microtiter plates at densities of 1000 cells/well and incubated for 24 h prior to addition of drugs. Drugs were dissolved in dimethyl sulfoxide (DMSO) and diluted in complete medium, prior to addition to triplicate culture wells to achieve final concentrations of […]. Following drug addition, the plates were incubated for 72 h. The assay was terminated by the addition of cold TCA and the cells were stained with 0.4% sulforhodamine B (SRB) in 1% acetic acid. Bound stain was subsequently solubilized with 10 mM trizma base, and the absorbance was read on an automated plate reader at a wavelength of 560 nm. Growth inhibition was determined by dividing the average Optical Density (OD) of the triplicated treated cultures by the average OD of the triplicate control cultures treated with DMSO solvent only. This ratio was converted into a percentage by multiplying by 100. The potency (concentration required to induce half of the maximal activity—GI50) were derived from dose-response graphs generated with results from 3 to 5 individual experiments using GraphPad Software.

Experiment [3] relates to HT-3 cervical carcinoma cell line. Description: In vitro cytotoxicity (SRB growth inhibition) assay, HT-3. On the set-up: dose or concentration left out as unconfirmed. The class given is cell-based, human. Particulars: 72 h. As to the method: as §1
Experiment [4] deals with organotypic cultures of normal endometrial cells treated with DMBA. The experiment in a line: Chemoprevention in DMBA-treated organotypic cultures of normal endometrial cells. Format: cell-based. The note with it: histology and karyometric analysis. From the text: Untreated: The specimen is cellular with both surface and mid-gel cells presence in abundance. Two cell types are clearly present. One appears to be stromal. The nuclei are thin and spindle shaped and the cytoplasm is similar. When cut in cross-section the nuclei are very small and round and hyperchromatic. The other cells have large, oval to almost boxcar nuclei with small nucleoli and abundant cytoplasm. Numerous mitosis are present. The epithelial cells are almost syncitial in nature and appear to cling to one another. With DMBA Carcinogen: The specimen is cellular. The cells present have lost their cytoplasm. There is more pleomorphism of the cells and many are very hyperchromatic. Mitoses are very numerous-approximately 2× the number in untreated. Cells no longer are together but are distinct one from another. Stromal cells intermix with the epithelial cells. […]
FIG. 19 illustrates a typical experiment in which organotypic cultures of normal endometrial cells were treated with a carcinogen called DMBA and developed the cancer phenotype. […] All segmented nuclei were then subjected to texture feature extraction using TICAS software, resulting in 95 textrue features for each nucleus that were subjected to quantitative analysis.

Take `CC1(C)CC(C)(C)c2cc(NC(=S)Nc3ccc([N+](=O)[O-])cc3)ccc2S1` [SHetA2]: the “growth inhibition of endothelial cells compared with A2780 and OVCAR-3” value in experiment [1] was “much less growth inhibited”. In the experiment on OVCAR-3 xenograft tumors, the “MUC-1 expression in xenograft tumors” value was “increase staining for mucin-1 (MUC1) protein” and the “gland formation (numbers of glands) in xenograft tumors” value was “greatest degree of gland induction”. The “Efficacy: percent growth inhibition relative to the untreated control” value in experiment [2] is 58%. Besides, the “Efficacy: percent growth inhibition relative to the untreated control” value in experiment [3] came out at 92%. In experiment [4], the “development of the DMBA-induced cancer phenotype” value was “prevented the development of this phenotype”.
